Measured values published in the NIST ThermoML archive (doi:10.1021/je020107x).
Numbers after ± are expanded uncertainties.

Assay: refractive index (Na D-line) (dimensionless)
Settings: 298.15 K; 101.33 kPa; Liquid; Standard Abbe refractometry

| Compound | refractive index |
| --- | --- |
| Clc1ccc(Cl)c(Cl)c1 [1,2,4-trichlorobenzene] | 1.522 ± 0.0005 |
| CCCCCCCCCCCC [dodecane] | 1.4275 ± 0.0005 |
| Clc1cccc(Cl)c1 [1,3-dichlorobenzene] | 1.5432 ± 0.0005 |
| Clc1ccccc1Cl [1,2-dichlorobenzene] | 1.5491 ± 0.0005 |
| CCCCCCCCCCCCCCCC [hexadecane] | 1.4325 ± 0.0005 |
| Clc1ccccc1 [chlorobenzene] | 1.5218 ± 0.0005 |
| CCCCCC [hexane] | 1.3728 ± 0.0005 |
